The source made the active and inactive calls.
Tests used:
[1] = molecular target: Peroxisome proliferator-activated receptor gamma/Nuclear receptor coactivator 3 (Homo sapiens, UniProt P37231); experiment: TR-FRET dose response biochemical High Throughput Screening assay for agonists of the steroid receptor coactivator 3 (SRC-3) recruitment by the peroxisome proliferator-activated receptor gamma (PPAR gamma): non-selective agonists. [Related pubchem assays: 1301 (Confirmation screen.), 1048 (Primary screen.)]; type: functional
Protein skinhead-1 = molecular target: T1, Protein skinhead-1 (Caenorhabditis elegans, UniProt P34707); type: functional
T1 sequence (P34707 whole entry): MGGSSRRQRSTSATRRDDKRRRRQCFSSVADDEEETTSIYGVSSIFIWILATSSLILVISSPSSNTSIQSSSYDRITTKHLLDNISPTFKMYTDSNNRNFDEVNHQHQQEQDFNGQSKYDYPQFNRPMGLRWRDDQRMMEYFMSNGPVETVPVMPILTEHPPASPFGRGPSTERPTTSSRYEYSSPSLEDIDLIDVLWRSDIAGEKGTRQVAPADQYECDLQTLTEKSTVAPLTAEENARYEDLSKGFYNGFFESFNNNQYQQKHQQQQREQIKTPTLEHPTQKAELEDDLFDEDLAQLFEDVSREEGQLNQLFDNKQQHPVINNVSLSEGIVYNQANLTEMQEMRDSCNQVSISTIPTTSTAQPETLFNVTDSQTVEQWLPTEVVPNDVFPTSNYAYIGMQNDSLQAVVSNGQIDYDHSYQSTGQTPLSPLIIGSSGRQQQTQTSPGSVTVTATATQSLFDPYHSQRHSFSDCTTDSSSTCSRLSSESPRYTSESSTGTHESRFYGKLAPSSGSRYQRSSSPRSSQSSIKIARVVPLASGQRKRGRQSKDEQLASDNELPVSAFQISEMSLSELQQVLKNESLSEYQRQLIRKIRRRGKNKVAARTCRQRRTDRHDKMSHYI

[2] = molecular target: T2, Polyadenylate-binding protein 1 (Homo sapiens, UniProt P11940); experiment: PABP1 MLLE–PAM2 interaction inhibitors, dose response, miRNA deadenylation inhibitor project, biochemical, fluorescence polarization, Cy5-PAM2 peptide, secondary (AID 602260); type: functional; conditions: read-out: IC50_Mean
Ephrin type-A receptor 4 = Ephrin type-A receptor 4 (Mus musculus, UniProt Q03137); experiment: inhibitors of EphA4 binding to KYL peptide, primary screen, biochemical, colorimetric, mouse EphA4 (AID 689); type: functional
[3] = molecular target: Peroxisome proliferator-activated receptor gamma/Nuclear receptor coactivator 2 (Homo sapiens, UniProt P37231); experiment: (§1) TR-FRET dose response biochemical High Throughput Screening assay for agonists of the steroid receptor coactivator 2 (SRC-2) recruitment by the peroxisome proliferator-activated receptor gamma (PPAR gamma): non-selective agonists. [Related pubchem assays: 1297, 1032 ]; type: functional
[4] = molecular target: Peroxisome proliferator-activated receptor gamma/Nuclear receptor coactivator 1 (Homo sapiens, UniProt P37231); experiment: as §1, with “1 (SRC-1)” for “2 (SRC-2)”, “assays (depositor defined):AID1300, AID1808, AID504735, AID631]” for “assays: 1297, 1032 ]”; type: protein assay
[5] = molecular target: T2, Polyadenylate-binding protein 1; experiment: PABP1 MLLE–PAM2 binding inhibitor potency, dose response, biochemical, fluorescence polarization, FITC-PAM2 peptide (AID 602259); type: functional; conditions: read-out: IC50_Mean
Cytochrome P450 1A2 = molecular target: T3, Cytochrome P450 1A2 (Homo sapiens, UniProt P05177);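 further: PubChem cytochrome P450 panel assay, CYP1A2 panel member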
T3 sequence (P05177 whole entry): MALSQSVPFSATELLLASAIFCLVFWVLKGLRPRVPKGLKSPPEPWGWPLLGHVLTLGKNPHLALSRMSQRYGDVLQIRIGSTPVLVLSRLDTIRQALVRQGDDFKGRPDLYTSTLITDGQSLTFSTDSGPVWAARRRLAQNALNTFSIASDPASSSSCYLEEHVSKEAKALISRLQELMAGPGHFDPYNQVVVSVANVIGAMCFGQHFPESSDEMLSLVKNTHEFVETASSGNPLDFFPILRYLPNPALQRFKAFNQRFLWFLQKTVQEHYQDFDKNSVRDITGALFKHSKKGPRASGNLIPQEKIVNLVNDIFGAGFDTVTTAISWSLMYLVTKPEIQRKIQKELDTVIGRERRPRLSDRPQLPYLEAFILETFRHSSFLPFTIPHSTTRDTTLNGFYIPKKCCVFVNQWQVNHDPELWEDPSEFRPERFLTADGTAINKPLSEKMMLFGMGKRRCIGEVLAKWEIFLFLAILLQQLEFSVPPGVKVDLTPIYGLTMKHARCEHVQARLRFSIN

[6] = half-maximal inhibitory concentration for glucagon-like peptide-1 release, STC-1 cell line, dose-response (AID 1117345); type: functional, cell-based
[7] = Glucagon-like peptide 1 release potency, NCI-H716 cell line, dose-response, half-maximal inhibitory concentration (AID 1117344); type: functional, cell-based
Cytochrome P450 2C19 = Cytochrome P450 2C19 (Homo sapiens, UniProt P33261); experiment: Cytochrome panel assay with activity outcomes. Panel member name: p450-cyp2c19 Compounds with AC50 equal or less than 10 uM are considered active; type: functional; conditions: read-out: AC50
Cytochrome P450 2D6 = Cytochrome P450 2D6 (Homo sapiens, UniProt P10635);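 further: CYP2D6 member of a cytochrome P450 panel assay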
Estrogen receptor = molecular target: T4, Estrogen receptor (Homo sapiens, UniProt P03372);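 further: potency for inhibiting coactivator peptide recruitment to the receptor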
T4 sequence (P03372 whole entry): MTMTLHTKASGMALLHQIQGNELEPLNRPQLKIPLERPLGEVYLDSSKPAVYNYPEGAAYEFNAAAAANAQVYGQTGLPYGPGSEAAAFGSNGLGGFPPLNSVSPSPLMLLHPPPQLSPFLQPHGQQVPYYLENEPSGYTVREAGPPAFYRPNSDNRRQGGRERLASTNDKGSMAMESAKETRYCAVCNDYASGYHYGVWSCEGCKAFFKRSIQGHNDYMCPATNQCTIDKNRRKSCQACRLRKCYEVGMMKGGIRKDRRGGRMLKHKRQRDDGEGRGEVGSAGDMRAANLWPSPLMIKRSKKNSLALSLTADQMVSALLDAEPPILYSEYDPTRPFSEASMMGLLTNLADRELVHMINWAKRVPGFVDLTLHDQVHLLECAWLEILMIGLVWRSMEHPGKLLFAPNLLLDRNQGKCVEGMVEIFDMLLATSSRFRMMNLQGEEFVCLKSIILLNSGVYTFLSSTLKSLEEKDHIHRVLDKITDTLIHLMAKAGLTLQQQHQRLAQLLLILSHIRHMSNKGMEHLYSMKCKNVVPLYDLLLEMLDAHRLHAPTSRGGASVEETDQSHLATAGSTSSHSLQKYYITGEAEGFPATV

[8] = Late stage counterscreen results from the probe development effort to identify activators of signal transducer and activator of transcription 1 (STAT1): luminescence-based cell-based dose response assay to identify cytotoxic compounds.; type: functional

T2 sequence (P11940 whole entry): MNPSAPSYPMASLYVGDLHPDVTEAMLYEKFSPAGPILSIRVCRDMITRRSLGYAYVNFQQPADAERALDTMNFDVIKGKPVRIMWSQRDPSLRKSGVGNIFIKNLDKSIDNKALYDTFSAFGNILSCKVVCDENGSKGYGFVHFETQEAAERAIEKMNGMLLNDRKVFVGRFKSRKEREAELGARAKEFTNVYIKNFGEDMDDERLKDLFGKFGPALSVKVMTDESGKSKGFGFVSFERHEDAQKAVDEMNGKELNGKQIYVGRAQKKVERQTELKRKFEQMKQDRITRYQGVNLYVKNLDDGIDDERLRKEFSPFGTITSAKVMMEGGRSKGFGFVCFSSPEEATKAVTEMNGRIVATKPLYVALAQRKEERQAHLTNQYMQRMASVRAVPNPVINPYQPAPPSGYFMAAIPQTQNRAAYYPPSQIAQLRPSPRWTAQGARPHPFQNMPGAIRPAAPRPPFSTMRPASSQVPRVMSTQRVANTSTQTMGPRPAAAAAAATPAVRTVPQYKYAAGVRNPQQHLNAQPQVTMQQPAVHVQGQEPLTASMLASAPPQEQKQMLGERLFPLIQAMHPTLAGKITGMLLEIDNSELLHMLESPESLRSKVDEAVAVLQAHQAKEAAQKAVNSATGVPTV
Chain of Ephrin type-A receptor 4 (Q03137 whole entry): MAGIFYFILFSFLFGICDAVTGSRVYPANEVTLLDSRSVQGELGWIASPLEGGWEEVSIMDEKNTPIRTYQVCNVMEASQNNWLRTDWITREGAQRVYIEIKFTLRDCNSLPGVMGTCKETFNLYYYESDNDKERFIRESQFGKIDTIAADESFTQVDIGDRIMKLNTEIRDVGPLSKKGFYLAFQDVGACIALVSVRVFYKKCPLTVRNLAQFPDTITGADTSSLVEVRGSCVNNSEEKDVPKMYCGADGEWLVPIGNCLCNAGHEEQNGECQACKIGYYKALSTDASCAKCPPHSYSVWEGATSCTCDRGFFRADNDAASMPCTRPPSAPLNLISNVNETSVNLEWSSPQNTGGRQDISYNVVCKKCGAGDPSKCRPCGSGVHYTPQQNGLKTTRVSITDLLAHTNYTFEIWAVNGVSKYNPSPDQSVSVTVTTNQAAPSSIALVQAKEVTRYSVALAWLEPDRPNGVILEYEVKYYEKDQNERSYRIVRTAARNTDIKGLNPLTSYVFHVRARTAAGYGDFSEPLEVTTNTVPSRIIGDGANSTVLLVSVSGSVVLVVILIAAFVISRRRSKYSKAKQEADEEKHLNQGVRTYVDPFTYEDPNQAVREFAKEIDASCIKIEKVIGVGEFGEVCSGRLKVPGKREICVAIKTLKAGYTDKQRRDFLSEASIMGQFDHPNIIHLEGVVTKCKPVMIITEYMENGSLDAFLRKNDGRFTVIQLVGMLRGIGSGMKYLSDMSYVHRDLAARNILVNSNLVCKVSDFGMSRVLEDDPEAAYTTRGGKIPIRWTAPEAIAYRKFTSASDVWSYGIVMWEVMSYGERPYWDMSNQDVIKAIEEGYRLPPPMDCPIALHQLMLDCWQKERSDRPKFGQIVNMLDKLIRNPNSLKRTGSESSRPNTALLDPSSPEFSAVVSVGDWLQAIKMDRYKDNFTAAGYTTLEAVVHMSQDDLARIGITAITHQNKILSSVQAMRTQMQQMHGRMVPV
Chain of Peroxisome proliferator-activated receptor gamma/Nuclear receptor coactivator 3 (P37231 whole entry): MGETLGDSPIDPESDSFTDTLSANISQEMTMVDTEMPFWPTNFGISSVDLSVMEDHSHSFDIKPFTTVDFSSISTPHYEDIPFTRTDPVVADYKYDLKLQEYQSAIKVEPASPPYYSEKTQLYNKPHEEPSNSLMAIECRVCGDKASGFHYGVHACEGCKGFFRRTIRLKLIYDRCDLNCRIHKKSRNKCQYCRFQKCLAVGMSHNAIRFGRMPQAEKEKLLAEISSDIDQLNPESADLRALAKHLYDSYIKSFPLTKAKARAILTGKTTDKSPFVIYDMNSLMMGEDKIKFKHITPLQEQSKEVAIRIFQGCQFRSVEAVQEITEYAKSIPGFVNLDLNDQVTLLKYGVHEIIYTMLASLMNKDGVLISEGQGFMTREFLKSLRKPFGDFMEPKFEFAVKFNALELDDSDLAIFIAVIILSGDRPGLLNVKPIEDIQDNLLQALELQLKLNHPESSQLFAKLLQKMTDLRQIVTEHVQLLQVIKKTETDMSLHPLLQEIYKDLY
Chain of Peroxisome proliferator-activated receptor gamma/Nuclear receptor coactivator 3 (Q9Y6Q9 whole entry, further chain): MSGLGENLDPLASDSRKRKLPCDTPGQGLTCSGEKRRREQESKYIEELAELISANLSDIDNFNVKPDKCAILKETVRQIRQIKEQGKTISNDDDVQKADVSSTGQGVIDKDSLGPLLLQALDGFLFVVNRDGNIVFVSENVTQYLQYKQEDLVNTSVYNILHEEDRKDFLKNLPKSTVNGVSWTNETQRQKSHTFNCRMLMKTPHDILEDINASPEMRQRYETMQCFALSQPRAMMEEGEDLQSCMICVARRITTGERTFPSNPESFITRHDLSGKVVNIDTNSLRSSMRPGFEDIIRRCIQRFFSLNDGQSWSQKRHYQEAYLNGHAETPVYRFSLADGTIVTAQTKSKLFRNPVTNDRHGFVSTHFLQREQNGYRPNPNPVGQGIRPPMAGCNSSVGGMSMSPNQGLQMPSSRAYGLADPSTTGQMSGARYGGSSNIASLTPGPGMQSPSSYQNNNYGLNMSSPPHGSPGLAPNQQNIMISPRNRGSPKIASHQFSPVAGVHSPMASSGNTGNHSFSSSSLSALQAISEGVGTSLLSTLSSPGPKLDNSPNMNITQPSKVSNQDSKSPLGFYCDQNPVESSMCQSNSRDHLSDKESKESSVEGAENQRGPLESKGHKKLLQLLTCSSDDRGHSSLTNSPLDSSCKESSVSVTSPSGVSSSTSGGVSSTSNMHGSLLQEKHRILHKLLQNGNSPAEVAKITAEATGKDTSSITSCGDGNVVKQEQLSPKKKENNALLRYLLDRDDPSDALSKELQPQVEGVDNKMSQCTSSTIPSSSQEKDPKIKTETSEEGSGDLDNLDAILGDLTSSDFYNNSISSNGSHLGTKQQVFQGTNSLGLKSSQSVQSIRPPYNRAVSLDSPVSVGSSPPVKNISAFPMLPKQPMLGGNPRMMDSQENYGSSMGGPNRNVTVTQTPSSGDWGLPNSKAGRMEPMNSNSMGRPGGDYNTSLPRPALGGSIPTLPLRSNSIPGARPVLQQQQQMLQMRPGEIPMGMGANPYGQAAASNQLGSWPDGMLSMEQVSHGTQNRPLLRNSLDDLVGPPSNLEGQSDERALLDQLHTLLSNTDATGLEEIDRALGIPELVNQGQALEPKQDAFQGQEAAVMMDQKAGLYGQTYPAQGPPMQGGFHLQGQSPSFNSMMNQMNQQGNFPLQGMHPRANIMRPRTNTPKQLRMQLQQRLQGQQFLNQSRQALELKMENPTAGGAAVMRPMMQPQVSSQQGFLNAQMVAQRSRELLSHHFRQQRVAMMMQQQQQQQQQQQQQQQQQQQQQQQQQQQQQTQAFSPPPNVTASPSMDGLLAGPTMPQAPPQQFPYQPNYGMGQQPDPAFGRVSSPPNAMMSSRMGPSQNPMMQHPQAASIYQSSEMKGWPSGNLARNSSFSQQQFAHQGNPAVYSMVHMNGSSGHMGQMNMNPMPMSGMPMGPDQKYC
Chain of Cytochrome P450 2D6 (P10635 whole entry): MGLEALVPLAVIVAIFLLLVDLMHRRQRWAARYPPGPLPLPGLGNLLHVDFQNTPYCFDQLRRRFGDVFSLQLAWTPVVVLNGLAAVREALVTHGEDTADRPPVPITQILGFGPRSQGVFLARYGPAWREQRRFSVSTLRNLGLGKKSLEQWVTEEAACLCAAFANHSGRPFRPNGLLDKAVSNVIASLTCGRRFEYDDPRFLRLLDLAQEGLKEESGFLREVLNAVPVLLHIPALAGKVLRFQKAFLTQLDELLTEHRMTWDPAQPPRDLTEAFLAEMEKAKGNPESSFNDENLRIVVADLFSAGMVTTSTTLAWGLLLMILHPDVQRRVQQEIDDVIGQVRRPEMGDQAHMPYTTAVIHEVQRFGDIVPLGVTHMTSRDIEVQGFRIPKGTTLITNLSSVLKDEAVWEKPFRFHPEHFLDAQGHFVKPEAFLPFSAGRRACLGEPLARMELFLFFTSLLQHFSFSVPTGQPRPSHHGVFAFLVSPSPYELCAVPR
Chain of Cytochrome P450 2C19 (P33261 whole entry): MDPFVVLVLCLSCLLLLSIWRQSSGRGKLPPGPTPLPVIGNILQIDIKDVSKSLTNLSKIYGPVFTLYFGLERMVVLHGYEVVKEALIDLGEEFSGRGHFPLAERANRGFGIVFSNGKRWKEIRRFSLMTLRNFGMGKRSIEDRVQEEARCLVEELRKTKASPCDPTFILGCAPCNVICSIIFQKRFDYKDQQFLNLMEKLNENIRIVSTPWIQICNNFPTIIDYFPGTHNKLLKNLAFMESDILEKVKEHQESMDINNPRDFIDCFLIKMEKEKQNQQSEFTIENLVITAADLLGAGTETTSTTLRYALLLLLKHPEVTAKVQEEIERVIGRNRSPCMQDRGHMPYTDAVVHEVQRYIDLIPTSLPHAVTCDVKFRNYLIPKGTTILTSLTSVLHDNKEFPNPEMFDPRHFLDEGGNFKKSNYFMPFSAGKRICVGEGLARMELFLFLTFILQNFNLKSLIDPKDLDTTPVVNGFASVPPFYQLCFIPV

In the case of Cc1cc2cc(CNC(=O)c3ccc(S(=O)(=O)N4CCCCC4)cc3)ccc2n1C, the EC50 [1] is reported as 8.51 µM (active), the IC50 (Protein skinhead-1) is reported as > 100 µM (inactive) and the IC50 [2] is reported as > 66 µM (inactive). For the same compound, the IC50 (Ephrin type-A receptor 4) was 15.8 µM (active), the EC50 [3] was 3.37 µM (active) and the EC50 [4] was 3.8 µM (active). The IC50 [5] was > 66 µM (inactive).

With CC[C@H](c1ccc(O)cc1)[C@@H](CC)c1ccc(O)cc1 [HEXESTROL] the AC50 (Cytochrome P450 1A2) was 12.6 µM (inconclusive), the IC50 [6] was 6.88 µM (inactive) and the IC50 [7] was > 40 µM (inactive). The AC50 (Cytochrome P450 2C19) was 3.16 µM (inconclusive) and the AC50 (Cytochrome P450 2D6) was 15.8 µM (inconclusive).

In the case of COc1ccc2[nH]c3c(c2c1)CCn1c-3nc2ccccc2c1=O, the IC50 (Estrogen receptor) is reported as 17.2 µM (active) and the IC50 [8] is reported as > 55.7 µM (not active).

Reference: ChEMBL document CHEMBL1201862, “PubChem BioAssay data set” (2004)
